Laboratory results as given in US20120136050A1, “USE OF A MELATONIN AGONIST FOR THE TREATMENT OF SLEEP DISORDERS INCLUDING PRIMARY INSOMNIA” (VANDA PHARMACEUTICALS INC., priority 2009, published 2012).
Entries after “also recorded” stand apart in the source; their conditions may differ.

What was measured:
[1] = test system: healthy volunteers, 5 hour advance in bedtime; experiment: Example 1: placebo-controlled clinical trial, 5 hour advance in bedtime (DLMO, PSG); format: in vivo, human
Description: A clinical trial was conducted to assess the safety of Compound A as well as to determine the ability of Compound A to shift the sleep/wake cycle following a 5 hour advance in bedtime. The study was a randomized, double-blind, parallel group, placebo-controlled study. It consisted of a 2-4 week outpatient screening period followed by an 8-day inpatient stay. After acclimating to the sleep lab, bedtime was advanced by 5 hours. The primary objectives of this study were to investigate the exposure-response to Compound A on advancement of circadian release of endogenous melatonin rhythm as measured by dim light melatonin onset (DLMO, a biomarker of the sleep-wake cycle), to investigate the exposure-response to Compound A on mean sleep efficiency parameters as measured by PSG, to investigate the exposure-response to Compound A on objective neurobehavioral performance lapses during scheduled work-time as measured by computerized continuous performance testing, and to assess the safety and tolerability of Compound A. Forty-five healthy volunteers, men and women aged 18-50, were enrolled into this study. Thirty-nine subjects were randomized.
The study was designed to assess the safety and efficacy of four oral doses of Compound A (10 mg, 20 mg, 50 mg and 100 mg) compared to matching placebo on circadian phase shift, sleep parameters during the major sleep episode, and subject alertness. After written informed consent was signed, subjects that met the inclusion/exclusion criteria at screening and baseline were enrolled into the 8-day in-patient portion of the study. All in-patient assessments were conducted in a time-isolation sleep lab in which no time cues were available to subjects. During the first three nights, subjects were given placebo 30 minutes prior to bedtime (11:00 PM) in a single-blind fashion. Baseline assessments for the efficacy parameters were measured during this period. At 5:00 PM on day 3, subjects started a 19 hour pre-constant posture (CP) segment during which time the subjects remained seated in a semi-recumbent position and blood samples were collected approximately every hour from 7:00 AM to 12:00 PM. The purpose of the pre-CP segment is to provide a measure of each subject's circadian phase before the start of the night shift segment. On day 4, subjects were randomized to once daily treatment in one of the five treatment groups. In addition, subject sleep-wake routines were advanced 5 hours, such that subjects were required to sleep from approximately 6:00 PM-2:00 AM. Treatment was administered and the time shift was maintained for 3 days. Efficacy parameters were collected during this time. To measure circadian phase at the end of the study, a 24-hour post-CP was conducted immediately after the treatment segment on day 7. Over the course of the study, approximately 500 mL of blood was drawn from each subject. Safety was assessed throughout the study, at the end of study (EOS) visit on day 8, and at the Follow-up visit. The target number of subjects for enrollment was 40 but 45 were actually enrolled.
To assess circadian sleep-wake cycles in the study, plasma melatonin levels were assessed. The onset of melatonin production, or dim light melatonin onset (DLMO), is associated with onset of sleep. DLMO is considered a standard marker used frequently to assess circadian phase. To assess the effects of Compound A on the sleep-wake cycles, DLMO was monitored in subjects before and after treatment. For this study, DLMO was defined as the time when melatonin production reaches 25% of the nightly peak (MEL25% up) of the fitted melatonin phase curve.
Because light has a significant confounding effect on melatonin release, light levels in the sleep laboratory were carefully regulated. […]

[2] = test system: healthy volunteers; experiment: Previous Phase I single and multiple ascending dose studies, safety and tolerability; format: in vivo
Description: A 28-day Phase II study was also conducted to investigate the effects of Compound A in elderly patients with primary insomnia. […] While patients with the lowest melatonin levels ([…]) may have benefited from Compound A treatment more than placebo, the design of this study made it difficult to interpret the effects of Compound A on the sleep-wake cycle.
The oral doses selected were based on safety and efficacy data obtained from previous Compound A pre-clinical and clinical trials. […] Though not optimally designed to assess the chronobiotic potential of Compound A, clinical trial CN116-002 measured the effects Compound A on the circadian sleep-wake cycle. […] The doses selected for the study (10 mg, 20 mg, 50 mg, and 100 mg) were within the expected dose range for efficacy. The safety of the selected doses for this study is supported by previous clinical studies. […] The highest dose in the study, 100 mg, is well within the safety margin established in both Phase I single and multiple ascending dose trials and in a Phase II study.

[3] = Particle size by laser diffraction (Malvern Mastersizer); format: physicochemical
Description: Particle size will also affect the dose selected. At larger particle sizes, i.e., D50 is greater than about 100 m, e.g., about 100 m to about 200 m oral doses at the higher end, i.e., up to about 100 mg are effective, whereas at smaller particle sizes, i.e., D50 is less than about 100 m, e.g., about 20 m to about 50 m, lower doses, i.e., less than about 100 mg, are useful, e.g., about 10 mg to about 80 mg and about 20 mg to about 50 mg. (Particle size measurements supporting the above were made laser diffraction using a Malvern Mastersizer. The D50 (D10, D90, D100) value means that 50% (10%, 90%, 100%) of the particles by weight are of the indicated diameter or smaller.) In one embodiment of the invention, the above doses are administered in immediate release form, i.e., a non-controlled release formulation.

[4] = material used in Example 1 study
[5] = material used in Example 2 study, material used in sleep latency study

CCC(=O)NC[C@@H]1C[C@H]1c1cccc2c1CCO2 [Compound A, N-[[(1R,2R)-2-(2,3-dihydro-1-benzofuran-4-yl)cycloproply]methyl]propanamide]
Change in DLMO25%,LOQ5 between Night 4 and Night 3 ([1]; 10 mg, N = 8): 0.18 h
Change in WASO (fraction of time awake from persistent sleep to lights on) between Night 4 and Night 2 ([1]; 10 mg, N = 8): 8.37 % points
Change in WASO between Night 4 and Night 2 ([1]; 10 mg, N = 8): 40.56 min
Mean Change in Sleep Efficiency between Night 4 and Night 2, Full Night ([1]; 10 mg, N = 8): −7.77 % points
Change in Latency to Persistent Sleep between Night 4 and Night 2 ([1]; 10 mg, N = 8, mean ± SD, p 0.0034 vs placebo): -8.25 ± 16.34 min
Mean Change in Sleep Efficiency between Night 4 and Night 2, 2nd Third of the Night ([1]; 10 mg, N = 8, mean ± SD, p 0.0303 vs placebo): −12.64 ± 13.83 % points
Change in DLMO25%,LOQ5 between Night 4 and Night 3 ([1]; 20 mg, N = 7): -1.14 h
Change in Latency to Persistent Sleep between Night 4 and Night 2 ([1]; 20 mg, N = 8): 5.00 min
Change in WASO (fraction of time awake from persistent sleep to lights on) between Night 4 and Night 2 ([1]; 20 mg, N = 8): 6.91 % points
Change in WASO between Night 4 and Night 2 ([1]; 20 mg, N = 8): 31.19 min
Mean Change in Sleep Efficiency between Night 4 and Night 2, Full Night ([1]; 20 mg, N = 8): −6.68 % points
Mean Change in Sleep Efficiency between Night 4 and Night 2, 2nd Third of the Night ([1]; 20 mg, N = 8, mean ± SD, p 0.0048 vs placebo): −5.11 ± 12.78 % points
Change in DLMO25%,LOQ5 between Night 4 and Night 3 ([1]; 50 mg, N = 4): -0.50 h
Change in WASO (fraction of time awake from persistent sleep to lights on) between Night 4 and Night 2 ([1]; 50 mg, N = 7): 6.61 % points
Change in WASO between Night 4 and Night 2 ([1]; 50 mg, N = 7): 31.21 min
Mean Change in Sleep Efficiency between Night 4 and Night 2, 2nd Third of the Night ([1]; 50 mg, N = 7, mean ± SD, p 0.0028 vs placebo): −2.10 ± 4.14 % points
Change in Latency to Persistent Sleep between Night 4 and Night 2 ([1]; 50 mg, N = 7, mean ± SD, p 0.0193 vs placebo): -3.71 ± 10.97 min
Mean Change in Sleep Efficiency between Night 4 and Night 2, Full Night ([1]; 50 mg, N = 7, mean ± SD, p 0.0487 vs placebo): −5.87 ± 9.89 % points
Change in DLMO25%,LOQ5 between Night 4 and Night 3 ([1]; 100 mg, N = 5, mean ± SD, p 0.0276 vs placebo): -2.74 ± 1.95 h
Change in Latency to Persistent Sleep between Night 4 and Night 2 ([1]; 100 mg, N = 6, mean ± SD, p 0.0214 vs placebo): -4.17 ± 6.93 min
Mean Change in Sleep Efficiency between Night 4 and Night 2, 2nd Third of the Night ([1]; 100 mg, N = 7, mean ± SD, p 0.0030 vs placebo): −2.30 ± 5.72 % points
Mean Change in Sleep Efficiency between Night 4 and Night 2, Full Night ([1]; 100 mg, N = 7, mean ± SD, p 0.0141 vs placebo): −2.02 ± 4.94 % points
Change in WASO (fraction of time awake from persistent sleep to lights on) between Night 4 and Night 2 ([1]; 100 mg, N = 7, mean ± SD, p 0.0391 vs placebo): 1.85 ± 4.29 % points
Change in WASO between Night 4 and Night 2 ([1]; 100 mg, N = 7, mean ± SD, p 0.0452 vs placebo): 8.50 ± 20.39 min
number of episodes of REM during the final third of the night ([1]; Night 4, after phase advance): dose-related increase
percentage of time in each sleep stage ([1]; between Night 4 and Night 2): did not change
tolerability ([1]; doses of 10, 20, 50, and 100 mg, conclusion from Examples 1 and 2): well-tolerated
lowest effective dose for DLMO shift ([1]; first dose with statistically significant p-value in ANOVA with contrasts): 100 mg
safety and tolerability, multiple doses ([2]; doses up to 150 mg daily for 28 days, healthy subjects (b53 also elderly subjects with chronic insomnia)): well-tolerated; also recorded: safety and tolerability of Compound A at doses up to 150 mg has been demonstrated
safety and tolerability, single dose ([2]; healthy subjects, single oral dose of 1 mg to 300 mg): safe and well tolerated
particle size D10 [3, 4]: 10 µm
particle size D50 [3, 4]: 115 µm
particle size D90 [3, 4]: 316 µm
particle size D100 [3, 4]: 631 µm
particle size D10 [3, 5]: 5 µm
particle size D50 [3, 5]: 25 µm
particle size D90 [3, 5]: 72 µm
particle size D100 [3, 5]: 316 µm
